Reference: US8618046B2, “Treatment of atherosclerosis with cholesterol ester transport protein mimotopes” (Affiris AG, priority 2007, dated 2013)
Entries after “also recorded” stand apart in the source; their conditions may differ. Where no end group is shown, it is not given here.

Key:
[1] = tested on: monoclonal antibody “Frida”; experiment: In vitro inhibition (competition) ELISA with mAb Frida on coated original CETP epitope; assay type: binding, mouse; details: for inhibition ELISA signal, first value column / inhibition ELISA signal, second value column: FIG. 18b, column without head; for inhibition ELISA signal, first value column / inhibition ELISA signal, second value column / inhibition ELISA signal, high / inhibition ELISA signal, low / inhibition ELISA signal, 2 μg peptide / inhibition ELISA signal, 20 μg peptide: detection αIgG1; for inhibition in in vitro competition ELISA, mAb “Frida” (in words): monoclonal antibodies “Frida” and, where stated, “James”; for inhibition ELISA signal, high / inhibition ELISA signal, low / inhibition ELISA signal, 2 μg peptide / inhibition ELISA signal, 20 μg peptide: 2.5 ng mAb Frida; for inhibition ELISA signal, high: high peptide amount; for inhibition ELISA signal, low: low peptide amount; for inhibition ELISA signal, 2 μg peptide / inhibition ELISA signal, 20 μg peptide: coat 1 μM peptide
Description: Different amounts of peptides (2 and 20 μg, as indicated in the respective figures) derived from Phage Display were incubated with the monoclonal antibody that was used for the screening procedure. Peptides diminishing subsequent binding of the antibody to the original CETP epitope (C-terminal 16 amino acids of CETP protein) coated on ELISA plates were considered as inhibiting. (Results see i.a. FIGS. 19a to 19c)

irrelevant peptide-BSA = experiment: Titer to irrelevant peptide in sera of immunised animals (peptide ELISA); assay type: in vivo, mouse; details: Table 1, mice, sera 2 weeks after 3rd injection
Description: Balb/c mice/30 μg Peptide, 2 injections in 2 week intervals. S3=2 weeks after 3rd injection. Alum as adjuvant. Titers against original epitope (p4073) induced by injection of mimotopes. Well coating: 50 μl of 1 μM p4073-BSA or 1 μg/ml activated KLH. Detection: αIgG:
Subcutaneous injections in the flank were performed in week 1, week 3 and week 7 with 30 μg peptide-KLH per mouse. Intradermal injections in the ear were performed in week 1, week 3 and week 6 with 10 μg peptide-KLH per mouse. Sera were taken 2 weeks after the 3rd injection. Vaccine formulation with Alum (always 1 mg per mouse): up to 250 μl, injected into one flank. The Alum formulation with 1 ml per mouse (500 μl into each flank) was in 1×PBS as buffer.
Vaccine formulation with Gerbu Adjuvant 100 (Gerbu Cat. Nr. #3100; always 50 μl adjuvant per mouse): 200 μl, 100 μl injected into each flank comprising 1×HEPES as buffer.
Female Balb/c mice, five mice per group, were subcutaneously immunized with 30 μg peptide coupled to KLH. Control groups were administered KLH or C-[…] (SEQ ID NO. 147). As adjuvant alum was used. […] The in vitro ELISA assay to determine the antibody titer was performed with pooled sera after two vaccinations in a two week interval (S2; see FIGS. 7a to 7d). The wells of the ELISA plate were coated with KLH (positive control), mimotope-BSA conjugate, C-[…] (SEQ ID NO. 147) and a irrelevant peptide-BSA conjugate (negative control). The detection was performed with anti-mouse IgG.

[2] = FIG. 18a, coat 1 μM 4073 peptide

## C-DFGFPAHVFIDWLQSLN (N-terminal cysteine; CETP mimotope) [p4818]
[1]; coat 1 μM 4073 peptide
  inhibition ELISA signal, first value column: 0.332
  inhibition ELISA signal, second value column: 0.091

## C-FGFPEHLLVDFLQSL (N-terminal Cys) [reference compound]
[1]
  inhibition in in vitro competition ELISA, mAb “Frida” (in words): inhibiting in vitro

## C-FGFPQHLFTDWLQSLS (N-terminal cysteine; CETP mimotope) [p4481]
[1]; [2]
  inhibition ELISA signal, high: 0.156
  inhibition ELISA signal, low: 0.551

## C-FGFPAHVFIDWLQSLN (N-terminal cysteine; CETP mimotope) [p4474]
[1]; [2]
  inhibition ELISA signal, high: 0.179
  inhibition ELISA signal, low: 1.452

## p4187-KLH: F3-34 C-TFLSSLA coupled to KLH (CTFLSSLA; also: coupled to KLH)
Irrelevant peptide-BSA; Alum s.c. (30 μg peptide)
  titer, p irrelevant: no titer
Irrelevant peptide-BSA; KLH/Gerbu s.c. (30 μg peptide)
  titer, p irrelevant: no titer

## C-DFGFPSHLIIDWLQSLS (N-terminal cysteine; CETP mimotope) [p4642]
[1]; coat 1 μM 4073 peptide
  inhibition ELISA signal, first value column: 0.171
  inhibition ELISA signal, second value column: 0.082

## C-FGFPEHLLVDFLQSLS [p4073, reference compound]
[1]; FIG. 10a
  inhibition ELISA signal, 2 μg peptide: 0.44
  inhibition ELISA signal, 20 μg peptide: 0.1
[1]; FIG. 10b
  inhibition ELISA signal, 2 μg peptide: 0.64
  inhibition ELISA signal, 20 μg peptide: 0.15
[1]; [2]
  inhibition ELISA signal, high: 0.094
  inhibition ELISA signal, low: 0.537
[1]; FIG. 18c, coat 1 μM 4073
  inhibition ELISA signal, high: 0.088
  inhibition ELISA signal, low: 0.554
[1]
  inhibition in in vitro competition ELISA, mAb “Frida” (in words): inhibiting in vitro

## C-FGFPAHVYIDWLQSLS [p4362]
[1]; FIG. 10a
  inhibition ELISA signal, 2 μg peptide: 0.75
  inhibition ELISA signal, 20 μg peptide: 0.15

## C-PEHLLVDFLQSLS (N-terminal Cys) [reference compound]
[1]
  inhibition in in vitro competition ELISA, mAb “Frida” (in words): evtl. slightly inhibiting in vitro

## C-PAHVFIDWLQ (N-terminal cysteine; CETP mimotope) [p4820]
[1]; coat 1 μM 4073 peptide
  inhibition ELISA signal, first value column: 2.310
  inhibition ELISA signal, second value column: 2.374

## FGFPAHVFIDWLQSLN-C [p5068]
[1]; coat 1 μM 4073 peptide
  inhibition ELISA signal, first value column: 0.757
  inhibition ELISA signal, second value column: 0.271

## C-GFPEHLLVDFLQSLS (N-terminal Cys) [reference compound]
[1]
  inhibition in in vitro competition ELISA, mAb “Frida” (in words): inhibiting in vitro

## C-FPEHLLVDFLQSLS (N-terminal Cys) [reference compound]
[1]
  inhibition in in vitro competition ELISA, mAb “Frida” (in words): inhibiting in vitro

## C-FGFPSHLIIEWLQSLS (N-terminal Cys; CETP mimotope) [p4433]
[1]; FIG. 18c, coat 1 μM 4073
  inhibition ELISA signal, high: 0.672
  inhibition ELISA signal, low: 1.114

## C-PAHVYIDWLQSLS (N-terminal cysteine; CETP mimotope) [p4629]
[1]; coat 1 μM 4073 peptide
  inhibition ELISA signal, first value column: 0.313
  inhibition ELISA signal, second value column: 0.118

## C-AAFPAHAAADFLQALA (N-terminal Cys; CETP mimotope) [p4435]
[1]; FIG. 18c, coat 1 μM 4073
  inhibition ELISA signal, high: 1.969
  inhibition ELISA signal, low: 1.281

## C-FGFPAHVFIDWLQSLS [p4361]
[1]; FIG. 10a
  inhibition ELISA signal, 2 μg peptide: 0.82
  inhibition ELISA signal, 20 μg peptide: 0.16

## C-FGFPAHFSIDWLQSLS (N-terminal cysteine; CETP mimotope) [p4475]
[1]; [2]
  inhibition ELISA signal, high: 1.429
  inhibition ELISA signal, low: 2.211

## C-AAFAAHLLADFLQAAA (N-terminal Cys; CETP mimotope) [p4436]
[1]; FIG. 18c, coat 1 μM 4073
  inhibition ELISA signal, high: 1.691
  inhibition ELISA signal, low: 1.632

## FGFPEHLLVDFLQSLS-C (C-terminal Cys; CETP mimotope) [p1208, positive control peptide, reference compound]
[1]; [2]
  inhibition ELISA signal, high: 0.093
  inhibition ELISA signal, low: 0.712
[1]; coat 1 μM 4073 peptide
  inhibition ELISA signal, first value column: 0.264
  inhibition ELISA signal, second value column: 0.079
[1]; FIG. 18c, coat 1 μM 4073
  inhibition ELISA signal, high: 0.101
  inhibition ELISA signal, low: 0.942

## C-FGFPAHVFIDWLQ (N-terminal cysteine; CETP mimotope) [p4631]
[1]; coat 1 μM 4073 peptide
  inhibition ELISA signal, first value column: 2.111
  inhibition ELISA signal, second value column: 2.147

## C-FGFPAHVSFDWLQSLS (N-terminal cysteine; CETP mimotope) [p4476]
[1]; [2]
  inhibition ELISA signal, high: 1.417
  inhibition ELISA signal, low: 2.000

## C-FPEHLLVDFLQSL (N-terminal Cys) [reference compound]
[1]
  inhibition in in vitro competition ELISA, mAb “Frida” (in words): not inhibiting in vitro

## C-DFGFPAHVTIDWLQSLN (N-terminal cysteine; CETP mimotope) [p4989]
[1]; coat 1 μM 4073 peptide
  inhibition ELISA signal, first value column: 0.932
  inhibition ELISA signal, second value column: 0.274

## C-AAFPAHLLADAAQALA (N-terminal Cys; CETP mimotope) [p4434]
[1]; FIG. 18c, coat 1 μM 4073
  inhibition ELISA signal, high: 1.461
  inhibition ELISA signal, low: 1.74

## C-PSHLIIDWLQ (N-terminal cysteine; CETP mimotope) [p4819]
[1]; coat 1 μM 4073 peptide
  inhibition ELISA signal, first value column: 2.226
  inhibition ELISA signal, second value column: 2.158

## C-FGFPEHLLVDFLQS [reference compound]
[1]
  inhibition in in vitro competition ELISA, mAb “Frida” (in words): not inhibiting in vitro

## C-GFKPAHVFIDWLQSLS (N-terminal cysteine; CETP mimotope) [p4479]
[1]; [2]
  inhibition ELISA signal, high: 1.591
  inhibition ELISA signal, low: 2.165

## C-FGFPSHLIIDWLQSLS (N-terminal Cys; CETP mimotope) [p4325]
[1]; FIG. 10b
  inhibition ELISA signal, 2 μg peptide: 0.42
  inhibition ELISA signal, 20 μg peptide: 0.1

## C-DFGFPAHVLIDWLQSLN (N-terminal cysteine; CETP mimotope) [p4990]
[1]; coat 1 μM 4073 peptide
  inhibition ELISA signal, first value column: 0.263
  inhibition ELISA signal, second value column: 0.073

## C-FKPAHVFIDWLQSLS (N-terminal cysteine; CETP mimotope) [p4478]
[1]; [2]
  inhibition ELISA signal, high: 1.206
  inhibition ELISA signal, low: 2.231

## C-FGFPAHVSIDWLQSLS (N-terminal cysteine; CETP mimotope) [Fr12/3/84 ext2]
[1]
  inhibition in in vitro competition ELISA, mAb “Frida” (in words): significant inhibition; also recorded: Strongly inhibiting

## C-FGFPSHIIIDWLQSLS (N-terminal Cys; CETP mimotope) [p4432]
[1]; FIG. 18c, coat 1 μM 4073
  inhibition ELISA signal, high: 0.096
  inhibition ELISA signal, low: 0.635

## C-DFGFPAHVFIDWLQSLS (N-terminal cysteine; CETP mimotope) [p4480]
[1]; [2]
  inhibition ELISA signal, high: 0.103
  inhibition ELISA signal, low: 0.521

## C-FGFPAHVYIDWLQ (N-terminal cysteine; CETP mimotope) [p4630]
[1]; coat 1 μM 4073 peptide
  inhibition ELISA signal, first value column: 2.131
  inhibition ELISA signal, second value column: 2.115

## C-FGFPEHVFIDWLQSLS (N-terminal cysteine; CETP mimotope) [p4477]
[1]; [2]
  inhibition ELISA signal, high: 0.116
  inhibition ELISA signal, low: 0.808

## FGFPAHVYIDWLQSLS-C (C-terminal cysteine; CETP mimotope) [p5067]
[1]; coat 1 μM 4073 peptide
  inhibition ELISA signal, first value column: 0.563
  inhibition ELISA signal, second value column: 0.217

## C-AAAPAHLLVDAAQAAA (N-terminal Cys; CETP mimotope) [p4437]
[1]; FIG. 18c, coat 1 μM 4073
  inhibition ELISA signal, high: 1.674
  inhibition ELISA signal, low: 1.84
